Laboratory results from ChEMBL document CHEMBL1201862, “PubChem BioAssay data set” (2004).
The source made the active and inactive calls.

Legend:
Jurkat = assay: antigen receptor-induced NF-kB inhibitors, dose response, Jurkat, luciferase reporter, luminescence, B- and T-cell (AID 489004); assay type: functional, cell-based; conditions: Homo sapiens;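 note: NF-kB luciferase reporter Jurkat cells stimulated with PMA plus ionomycin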
[1] = cytotoxicity in HEK-293T NF-kB-Luc cells, dose response, cytotoxicity control for B/T-cell NF-kB inhibitor project, cell-based, uHTS hits (AID 489019); assay type: functional;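 note: IC50 reflects cytotoxicity as loss of cell viability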
[2] = target: Luciferin 4-monooxygenase (Photinus pyralis, UniProt P08659); assay: firefly luciferase enzyme inhibitors, dose response, biochemical, dry powder samples, plate reader (AID 588451)
Chain of Luciferin 4-monooxygenase (P08659 whole entry): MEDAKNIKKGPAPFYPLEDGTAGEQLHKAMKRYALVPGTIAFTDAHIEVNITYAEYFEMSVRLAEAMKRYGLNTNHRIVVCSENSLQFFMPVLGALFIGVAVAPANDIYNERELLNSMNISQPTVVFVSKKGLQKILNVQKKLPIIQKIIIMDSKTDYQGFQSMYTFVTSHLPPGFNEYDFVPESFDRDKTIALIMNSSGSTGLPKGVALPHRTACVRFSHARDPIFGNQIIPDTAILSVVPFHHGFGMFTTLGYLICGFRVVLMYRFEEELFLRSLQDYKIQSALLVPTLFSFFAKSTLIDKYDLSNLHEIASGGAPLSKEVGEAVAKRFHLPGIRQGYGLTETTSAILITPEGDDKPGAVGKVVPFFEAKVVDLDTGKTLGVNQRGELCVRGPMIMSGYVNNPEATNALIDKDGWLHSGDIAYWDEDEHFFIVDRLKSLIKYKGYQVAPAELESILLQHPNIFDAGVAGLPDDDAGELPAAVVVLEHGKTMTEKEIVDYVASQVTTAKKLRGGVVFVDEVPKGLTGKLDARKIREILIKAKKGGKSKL

H4 [3] = assay: inhibitors of control reporter signal in H4 cells – cell-based, plate reader, dry powder samples, counter-screen for prion reporter project, dose response (AID 540255); assay type: functional; conditions: Homo sapiens
H4 [4] = assay: Amyloid Precursor 5' UTR neuroblastoma cell reporter line Measured in Cell-Based System Using Plate Reader - 2078-04_Inhibitor_Dose_DryPowder_Activity. [Related pubchem assays (depositor defined):AID488894]; assay type: functional; conditions: Homo sapiens
H4 [5] = assay: Inhibitors of Prion Protein 5' UTR mRNA Measured in Cell-Based System Using Plate Reader - 2078-01_Inhibitor_Dose_DryPowder_Activity. [Related pubchem assays (depositor defined):AID488894]; assay type: functional; conditions: Homo sapiens
[6] = LGR2 antagonists, dose response, cell-based, HEK293, CRE-luciferase reporter, cherry pick, set 2 (AID 743343); assay type: functional;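 note: transfected cells were stimulated with diluted bursicon conditioned medium after compound addition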
[7] = MC4R antagonists, dose response, counter-screen for LGR2 antagonist project, cell-based, plate reader, cherry pick (AID 743444); assay type: functional;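 note: transfected HEK 293 cells stimulated with alpha-MSH peptide; potency of inhibitors of the alpha-MSH evoked signal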
[8] = target: T1, Cyclin-dependent kinase 5/CDK5 activator 1 (Homo sapiens, UniProt Q00535); assay: CDK5/p35 kinase inhibitors, dose response, biochemical, cherry-picked samples, set 2 (AID 504545)
T1 sequence (Q00535 whole entry): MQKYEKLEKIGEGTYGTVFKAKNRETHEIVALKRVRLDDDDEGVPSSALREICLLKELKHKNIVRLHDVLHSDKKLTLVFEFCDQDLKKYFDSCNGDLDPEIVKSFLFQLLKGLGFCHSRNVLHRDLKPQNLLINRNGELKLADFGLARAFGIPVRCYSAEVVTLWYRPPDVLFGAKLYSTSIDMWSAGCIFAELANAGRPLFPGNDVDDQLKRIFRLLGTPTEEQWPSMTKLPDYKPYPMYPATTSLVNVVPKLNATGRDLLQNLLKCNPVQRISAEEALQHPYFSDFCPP
T1 sequence (Q15078 whole entry, further chain): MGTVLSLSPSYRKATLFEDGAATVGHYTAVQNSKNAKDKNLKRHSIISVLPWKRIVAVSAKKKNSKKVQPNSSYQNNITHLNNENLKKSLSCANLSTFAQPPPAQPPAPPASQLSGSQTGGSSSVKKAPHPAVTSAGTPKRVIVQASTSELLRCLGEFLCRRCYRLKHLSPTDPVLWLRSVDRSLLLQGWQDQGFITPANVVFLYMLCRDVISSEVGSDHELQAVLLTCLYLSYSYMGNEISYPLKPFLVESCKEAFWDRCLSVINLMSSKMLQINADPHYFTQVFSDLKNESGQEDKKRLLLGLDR

[9] = target: Glycogen synthase kinase-3 alpha (Homo sapiens, UniProt P49840); assay: Inhibition of Human GSK-3 alpha Activity Measured in Biochemical System Using Microfluidics - 2063-06_Inhibitor_Dose_DryPowder_Activity_Set2. [Related pubchem assays (depositor defined):AID2709]
Chain of Glycogen synthase kinase-3 alpha (P49840 whole entry): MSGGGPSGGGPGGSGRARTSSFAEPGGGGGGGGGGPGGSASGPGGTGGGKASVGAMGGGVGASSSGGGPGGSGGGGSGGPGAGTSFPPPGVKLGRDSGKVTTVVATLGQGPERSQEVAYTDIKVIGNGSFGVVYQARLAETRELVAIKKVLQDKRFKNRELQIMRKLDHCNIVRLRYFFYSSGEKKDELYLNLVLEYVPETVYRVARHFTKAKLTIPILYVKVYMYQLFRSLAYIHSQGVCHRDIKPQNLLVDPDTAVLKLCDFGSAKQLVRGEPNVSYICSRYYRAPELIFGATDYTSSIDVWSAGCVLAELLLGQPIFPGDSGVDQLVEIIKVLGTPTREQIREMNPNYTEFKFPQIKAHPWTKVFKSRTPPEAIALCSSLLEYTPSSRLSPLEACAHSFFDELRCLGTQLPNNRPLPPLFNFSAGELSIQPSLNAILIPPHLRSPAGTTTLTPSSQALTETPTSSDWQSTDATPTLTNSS

[10] = target: Glycogen synthase kinase-3 beta (Homo sapiens, UniProt P49841); assay: Inhibition of Human GSK-3 beta Activity Measured in Biochemical System Using Microfluidics - 2063-05_Inhibitor_Dose_DryPowder_Activity_Set2. [Related pubchem assays (depositor defined):AID2709]
Chain of Glycogen synthase kinase-3 beta (P49841 whole entry): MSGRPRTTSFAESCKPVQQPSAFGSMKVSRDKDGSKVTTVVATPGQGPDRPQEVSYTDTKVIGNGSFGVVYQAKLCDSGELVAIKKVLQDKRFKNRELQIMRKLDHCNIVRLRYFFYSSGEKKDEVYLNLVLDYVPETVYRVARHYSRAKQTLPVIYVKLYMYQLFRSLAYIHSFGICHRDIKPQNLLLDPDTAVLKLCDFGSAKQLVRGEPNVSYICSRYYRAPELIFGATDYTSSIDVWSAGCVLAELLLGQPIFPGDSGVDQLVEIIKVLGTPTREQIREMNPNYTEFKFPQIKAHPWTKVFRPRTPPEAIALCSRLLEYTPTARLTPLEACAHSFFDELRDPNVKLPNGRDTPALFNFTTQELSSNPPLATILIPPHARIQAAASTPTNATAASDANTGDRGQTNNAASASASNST

[11] = target: T1, Cyclin-dependent kinase 5/CDK5 activator 1; assay: CDK5-p25 kinase inhibitors, specificity check, dose response, selectivity assay for GSK-3 alpha inhibitor project, biochemical, microfluidic mobility shift, dry powder (AID 588430)

Structure (SMILES)	IC50 (Jurkat)	IC50 [1]	AC50 [2]	AC50 (H4 [3])	AC50 (H4 [4])	AC50 (H4 [5])	AC50 [6]	AC50 [7]	AC50 [8]	AC50 [9]	AC50 [10]	AC50 [11]
Cc1cc(C(=O)COC(=O)c2ccccc2O)c(C)n1CC1CCCO1 (configuration not stated)	250 nM (active)	> 80000 nM (inactive)	1050 nM (active)	273 nM (active)	5.98 nM (active)	17 nM (active)	178 nM (active)	178 nM (active)				
COc1ccc2nc3c(cc2c1)c(NC(=O)CC(C)C)nn3CC(C)C									32700 nM (active)	1480 nM (active)	228 nM (active)	1400 nM (active)
